Molecular target: T1, human 11β-HSD1 (Homo sapiens, UniProt P28845)
T1 construct: expressed in transfected cells; host or cells: HEK-293 cells, stably transfected; cell lysate
Assay: 11β-HSD1 reductase activity (conversion of radiolabelled cortisone to cortisol) in lysates of stably transfected HEK-293 cells
Format: biochemical
Details: 10 μM CBX, 100 nM cortisone substrate

T1 sequence (P28845 whole entry): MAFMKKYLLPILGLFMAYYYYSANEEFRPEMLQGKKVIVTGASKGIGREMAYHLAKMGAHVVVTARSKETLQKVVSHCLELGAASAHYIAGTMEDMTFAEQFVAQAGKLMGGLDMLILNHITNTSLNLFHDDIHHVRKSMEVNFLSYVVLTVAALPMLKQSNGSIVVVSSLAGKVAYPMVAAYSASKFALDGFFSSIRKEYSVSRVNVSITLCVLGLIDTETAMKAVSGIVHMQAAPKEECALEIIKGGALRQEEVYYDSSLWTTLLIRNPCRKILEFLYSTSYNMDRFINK

CC1(C)[C@@H](OC(=O)CCC(=O)O)CC[C@]2(C)[C@H]3C(=O)C=C4[C@@H]5C[C@@](C)(C(=O)O)CC[C@]5(C)CC[C@@]4(C)[C@]3(C)CC[C@@H]12 [CBX, carbenoxolone]
11β-HSD1 % of control: 4.43 % of control
